Read-outs that look alike come from different tables or passages of the source.

Results on 22 molecules are retold here after patent US7709482B2, “Polycyclic heteroaryl substituted triazoles useful as Axl inhibitors” (Rigel Pharmaceuticals, Inc., priority 2006, dated 2010).

For the test, the target named is T1, Axl (Homo sapiens, UniProt P30530).
T1 construct: endogenous in cells; host or cells: HeLa cells
T1 sequence (P30530 26-894): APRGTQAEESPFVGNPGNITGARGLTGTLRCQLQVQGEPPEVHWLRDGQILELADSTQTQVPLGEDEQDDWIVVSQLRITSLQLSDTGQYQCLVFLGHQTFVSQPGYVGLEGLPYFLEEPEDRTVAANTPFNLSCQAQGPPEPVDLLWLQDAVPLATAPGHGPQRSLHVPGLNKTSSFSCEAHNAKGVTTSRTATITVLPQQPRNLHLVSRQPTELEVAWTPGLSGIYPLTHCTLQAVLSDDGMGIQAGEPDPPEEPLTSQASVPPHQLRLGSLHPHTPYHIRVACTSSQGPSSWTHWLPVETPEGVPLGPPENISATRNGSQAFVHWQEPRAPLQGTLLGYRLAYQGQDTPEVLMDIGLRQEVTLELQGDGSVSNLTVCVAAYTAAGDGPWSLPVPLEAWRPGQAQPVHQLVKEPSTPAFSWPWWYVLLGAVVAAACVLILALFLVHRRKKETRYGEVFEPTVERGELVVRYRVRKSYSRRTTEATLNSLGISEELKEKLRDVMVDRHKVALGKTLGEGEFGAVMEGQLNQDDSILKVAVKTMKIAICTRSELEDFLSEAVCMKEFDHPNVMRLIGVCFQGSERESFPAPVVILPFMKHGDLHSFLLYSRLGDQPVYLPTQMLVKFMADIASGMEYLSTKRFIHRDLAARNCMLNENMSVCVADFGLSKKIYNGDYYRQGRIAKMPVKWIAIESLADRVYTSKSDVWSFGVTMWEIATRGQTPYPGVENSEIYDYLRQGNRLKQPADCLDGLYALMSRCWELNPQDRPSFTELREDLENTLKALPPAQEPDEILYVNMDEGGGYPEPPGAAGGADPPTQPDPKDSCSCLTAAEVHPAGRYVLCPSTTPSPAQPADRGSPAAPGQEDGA
Description: Phospho-Akt In-Cell Western Assay (inhibition of Axl activity after Axl-antibody cross-linking). The test is classed as cell-based. The conditions noted are these: read-out: IC50. The essentials:
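HeLa cells on poly-L-lysine, starved 24 h in 0.5% FCS DMEM with Axl/Fc 500 ng/mL, pre-treated with compound 1 h at 37 °C, then stimulated 5 min by anti-Axl/anti-mouse antibody cross-linking. Fixed cells probed for phospho-Akt with HRP secondary and chemiluminescent detection.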

[1] abbreviates: inhibition of Axl activity, Table 1, compounds of formula (Ia).
Setting [2] is: Hela cells, phospho-Akt chemiluminescence normalized to relative cell number, compounds of formula (Ia), Table 1.

As usually defined, the IC50 is the midpoint of a concentration-inhibition curve. With `Nc1nc(Nc2ccc(N3CCN4CCCCC4C3)c(F)c2)nn1-c1cc2c(nn1)-c1ccccc1CCC2` (stereo not shown) [Compound 128, 1-(6,7-dihydro-5H-benzo[6,7]cyclohepta[1,2-c]pyridazin-3-yl)-N^3-(3-fluoro-4-(octahydro-1H-pyrido[1,2-a]pyrazin-2-yl)phenyl)-1H-1,2,4-triazole-3,5-diamine], under setting [1], the IC50 is 1000 to 10000 nM.

For `Nc1nc(Nc2ccc(N3CCC(N4CCCC4)CC3)c(F)c2)nn1-c1cc(-c2ccccc2)c2c(n1)-c1ccccc1CCC2` [Compound 238, 1-(4-phenyl-6,7-dihydro-5H-benzo[6,7]cyclohepta[1,2-b]pyridin-2-yl)-N^3-(3-fluoro-4-(4-pyrrolidin-1-ylpiperidin-1-yl)phenyl)-1H-1,2,4-triazole-3,5-diamine], under setting [1], the IC50 lay in the range of 1000 to 10000 nM.

Consider `Nc1nc(Nc2ccc(C3CCN(C4CC5CCC4C5)CC3)cc2)nn1-c1cc2c(nn1)-c1ccccc1SCC2` (stereo not shown) [Compound 236, 1-(6,7-dihydro-5H-benzo[2,3]thiepino[4,5-c]pyridazin-3-yl)-N^3-(4-(1-bicyclo[2.2.1]heptan-2-yl)-piperidin-4-ylphenyl)-1H-1,2,4-triazole-3,5-diamine], for which the IC50 under setting [1] was less than 1000 nM.

For the molecule `Nc1nc(Nc2ccc(N3CCN(C4CC5CCC4C5)CC3)nc2)nn1-c1cc2c(nn1)-c1ccccc1CCC2` (stereo not shown) [Compound 8, 1-(6,7-dihydro-5H-benzo[6,7]cyclohepta[1,2-c]pyridazin-3-yl)-N^3-(6-(4-(bicyclo[2.2.1]heptan-2-yl)piperazin-1-yl)pyridin-3-yl)-1H-1,2,4-triazole-3,5-diamine], the IC50 under setting [2] is 1000 to 10000 nM.

In the case of `C[C@@H]1CCCN1C1CCc2ccc(Nc3nc(N)n(-c4cc5c(nn4)-c4ccccc4CCC5)n3)cc2CC1` (stereo partly drawn) [Compound 220, 1-(6,7-dihydro-5H-benzo[6,7]cyclohepta[1,2-c]pyridazin-3-yl)-N^3-(7-(2-(R)-methylpyrrolidin-1-yl)-6,7,8,9-tetrahydro-5H-benzo[7]annulene-2-yl)-1H-1,2,4-triazole-3,5-diamine], under setting [1], the IC50 was less than 1000 nM.

For `Nc1nc(Nc2ccc(C(=O)N3CCC(N4CCCCC4)CC3)nc2)nn1-c1cc2c(nn1)-c1ccccc1CCC2` [Compound 149, 1-(6,7-dihydro-5H-benzo[6,7]cyclohepta[1,2-c]pyridazin-3-yl)-N^3-(6-((4-piperidin-1-ylpiperidin-1-yl)carbonyl)pyridin-3-yl)-1H-1,2,4-triazole-3,5-diamine], the IC50 under setting [1] was in the range of 1000 to 10000 nM.

In the case of `Nc1nc(Nc2ccc3c(c2)CCC(NC2CC4CCC2C4)CC3)nn1-c1cc2c(nn1)-c1ccccc1CCC2` (stereo not shown) [Compound 23, 1-(6,7-dihydro-5H-benzo[6,7]cyclohepta[1,2-c]pyridazin-3-yl)-N^3-(7-((bicyclo[2.2.1]heptan-2-yl)amino)-6,7,8,9-tetrahydro-5H-benzo[7]annulene-2-yl)-1H-1,2,4-triazole-3,5-diamine], under setting [2], the IC50 is less than 1000 nM.

Take `Nc1nc(Nc2ccc3c(c2)CCC(NCC2CCCO2)CC3)nn1-c1cc2c(nn1)-c1ccccc1CCC2` (stereo not shown) [Compound 228, 1-(6,7-dihydro-5H-benzo[6,7]cyclohepta[1,2-c]pyridazin-3-yl)-N^3-(7-(tetrahydrofuran-2-ylmethyl)amino-6,7,8,9-tetrahydro-5H-benzo[7]annulene-2-yl)-1H-1,2,4-triazole-3,5-diamine]: under setting [1], the IC50 was less than 1000 nM.

Turning to `Nc1nc(Nc2ccc3c(c2)OCCCO3)nn1-c1cc2c(nn1)-c1ccccc1CCC2` [Compound 100, 1-(6,7-dihydro-5H-benzo[6,7]cyclohepta[1,2-c]pyridazin-3-yl)-N^3-(3,4-dihydro-2H-benzo[b][1,4]dioxepin-7-yl)-1H-1,2,4-triazole-3,5-diamine], under setting [2], the IC50 fell in the range of 1000 to 10000 nM.

Consider `Nc1nc(Nc2ccc(C=CCN3CCCCC3)cc2)nn1-c1cc2c(nn1)-c1ccccc1CCC2` [Compound 198, 1-(6,7-dihydro-5H-benzo[6,7]cyclohepta[1,2-c]pyridazin-3-yl)-N^3-(4-(piperidin-1-ylprop-1-enyl)phenyl)-1H-1,2,4-triazole-3,5-diamine], for which, under setting [1], the IC50 is less than 1000 nM.

`Nc1nc(Nc2ccc(OCCN3CCCC3)c(F)c2)nn1-c1cc2c(nn1)-c1ccccc1CCC2` [Compound 48, 1-(6,7-dihydro-5H-benzo[6,7]cyclohepta[1,2-c]pyridazin-3-yl)-N^3-(3-fluoro-4-(2-(pyrrolidin-1-yl)ethoxy)phenyl)-1H-1,2,4-triazole-3,5-diamine]: the IC50 under setting [2] was in the range of 1000 to 10000 nM.

Turning to `CN1CC2CN(C3CCN(c4ccc(Nc5nc(N)n(-c6cc7c(nn6)-c6ccccc6CCC7)n5)cc4F)CC3)CC2C1` (stereo not shown) [Compound 134, 1-(6,7-dihydro-5H-benzo[6,7]cyclohepta[1,2-c]pyridazin-3-yl)-N^3-(3-fluoro-4-(4-(5-methyloctahydropyrrolo[3,4-c]pyrrolyl)piperidin-1-yl)phenyl)-1H-1,2,4-triazole-3,5-diamine], the IC50 under setting [1] is less than 1000 nM.

As to `Nc1nc(Nc2ccc(CC3C(=O)Nc4ccc(F)cc43)cc2)nn1-c1cc2c(nn1)-c1ccccc1CCC2` (stereo not shown) [Compound 91, 1-(6,7-dihydro-5H-benzo[6,7]cyclohepta[1,2-c]pyridazin-3-yl)-N^3-(4-((5-fluoroindolin-2-on-3-yl)methyl)phenyl)-1H-1,2,4-triazole-3,5-diamine], the IC50 under setting [2] is more than 20000 nM.

Take `Nc1nc(Nc2ccc(/C=C/CN3CCC(N4CCCC4)CC3)nc2)nn1-c1cc2c(nn1)-c1ccccc1CCC2` [Compound 141, 1-(6,7-dihydro-5H-benzo[6,7]cyclohepta[1,2-c]pyridazin-3-yl)-N^3-(6-(3-(4-(pyrrolidin-1-yl)piperidin-1-yl)-(E)-propenyl)pyridin-3-yl)-1H-1,2,4-triazole-3,5-diamine]: the IC50 under setting [1] lay within 1000 to 10000 nM.

In the case of `Nc1nc(Nc2ccc(CCCN3CCCCC3)nc2)nn1-c1cc2c(nn1)-c1ccccc1CCC2` [Compound 142, 1-(6,7-dihydro-5H-benzo[6,7]cyclohepta[1,2-c]pyridazin-3-yl)-N^3-(6-(3-piperidin-1-yl)-propanylpyridin-3-yl)-1H-1,2,4-triazole-3,5-diamine], the IC50 under setting [1] is less than 1000 nM.

Consider `CC(C)N1CCN(C2CCN(c3ccc(Nc4nc(N)n(-c5cc6c(nn5)-c5ccccc5CCC6)n4)cc3F)CC2)CC1` [Compound 80, 1-(6,7-dihydro-5H-benzo[6,7]cyclohepta[1,2-c]pyridazin-3-yl)-N^3-(3-fluoro-4-(4-(4-isopropylpiperazin-1-yl)piperidin-1-yl)phenyl)-1H-1,2,4-triazole-3,5-diamine], for which the IC50 under setting [2] was less than 1000 nM.

As to `Nc1nc(Nc2ccc3c(c2)CCC(=O)CC3)nn1-c1cc2c(nn1)-c1ccccc1CCC2` [Compound 223, 1-(6,7-dihydro-5H-benzo[6,7]cyclohepta[1,2-c]pyridazin-3-yl)-N^3-(7-oxo-6,7,8,9-tetrahydro-5H-benzo[7]annulene-2-yl)-1H-1,2,4-triazole-3,5-diamine], the IC50 under setting [1] was less than 1000 nM.

Regarding `Nc1nc(Nc2ccc3c(c2)NC(=O)CCC3)nn1-c1cc2c(nn1)-c1ccccc1CCC2` [Compound 11, 1-(6,7-dihydro-5H-benzo[6,7]cyclohepta[1,2-c]pyridazin-3-yl)-N^3-(4,5-dihydro-1H-benzo[b]azepin-2(3H)-on-8-yl)-1H-1,2,4-triazole-3,5-diamine], the 50% inhibitory concentration (IC50) under setting [2] was less than 1000 nM.

Consider `Nc1nc(Nc2ccc3c(c2)CCC(NC2CCC2)CC3)nn1-c1cc2c(nn1)-c1ccccc1CCC2` (stereo not shown) [Compound 229, 1-(6,7-dihydro-5H-benzo[6,7]cyclohepta[1,2-c]pyridazin-3-yl)-N^3-(7-cyclobutylamino-6,7,8,9-tetrahydro-5H-benzo[7]annulene-2-yl)-1H-1,2,4-triazole-3,5-diamine], for which the IC50 under setting [1] is less than 1000 nM.

Turning to `Nc1nc(Nc2cnc(N3CCC(CN4CCCCC4)CC3)nc2)nn1-c1cc2c(nn1)-c1ccccc1CCC2` [Compound 148, 1-(6,7-dihydro-5H-benzo[6,7]cyclohepta[1,2-c]pyridazin-3-yl)-N^3-(2-(4-(piperidin-1-ylmethyl)piperidin-1-yl)pyrimidin-5-yl)-1H-1,2,4-triazole-3,5-diamine], the IC50 under setting [1] was 1000 to 10000 nM.

Take `Nc1nc(Nc2ccc(C3CCN(CC4CC4)CC3)cc2)nn1-c1cc2c(nn1)-c1ccccc1CCC2` [Compound 212, 1-(6,7-dihydro-5H-benzo[6,7]cyclohepta[1,2-c]pyridazin-3-yl)-N^3-(4-(1-cyclopropylmethylpiperidin-4-yl)phenyl)-1H-1,2,4-triazole-3,5-diamine]: the IC50 under setting [1] was less than 1000 nM.

For the molecule `Nc1nc(Nc2ccc3c(c2)CCC(NCC2CC2)CC3)nn1-c1cc2c(nn1)-c1ccccc1CCC2` (stereo not shown) [Compound 230, 1-(6,7-dihydro-5H-benzo[6,7]cyclohepta[1,2-c]pyridazin-3-yl)-N^3-(7-(cyclopropylmethyl)amino-6,7,8,9-tetrahydro-5H-benzo[7]annulene-2-yl)-1H-1,2,4-triazole-3,5-diamine], the half-inhibitory concentration (IC50) under setting [1] was less than 1000 nM.
